{"source": "patent US5124157A", "about": "“Method and device for administering dexmedetomidine transdermally” (Cygnus Therapeutic Systems, priority 1989, dated 1992)", "key": {"alpha-2 receptor": {"tested_on": "alpha-2 receptor", "details": "background, cited from earlier work; for activity/potency of the isomers (in words): isomers compared with each other"}, "[1]": {"details": "no data given; cited from earlier work"}, "[2]": {"experiment": "skin permeability, base versus salts (general statement)", "assay_type": "in vitro ADME", "details": "free base vs its salts; no data given"}}, "note": "“Also recorded” adds a separate entry of the source.", "data": [{"smiles": "Cc1cccc([C@@H](C)c2cnc[nH]2)c1C", "note": "[Preparation 1-isomer]", "values": [{"measurement": "activity/potency of the isomers (in words)", "setting": "alpha-2 receptor", "value": "far less potent"}]}, {"smiles": "Cc1cccc(C(C)c2cnc[nH]2)c1C", "note": "(stereo not drawn) [Medetomidine, 4(5)-[alpha-methyl-2,3-dimethylbenzyl] imidazole]", "values": [{"measurement": "alpha-2 receptor agonist potency and selectivity (in words)", "setting": "alpha-2 receptor", "value": "potent and selective alpha-2 receptor agonist"}]}, {"smiles": "Cc1cccc([C@H](C)c2cnc[nH]2)c1C", "note": "[dexmedetomidine]", "values": [{"measurement": "activity/potency of the isomers (in words)", "setting": "alpha-2 receptor", "value": "the active isomer"}, {"measurement": "clearance rate from the body (in words)", "setting": "[1]", "value": "quite high; also recorded: relatively high"}, {"measurement": "skin permeability of base form relative to salts (in words)", "setting": "[2]", "value": "the skin is somewhat more permeable to the base form of the drug than its salts"}]}]}
